Reference: patent US20020002269A1, “ARTEMIN, A NEUROTROPHIC FACTOR” (priority 1998, published 2002)

Test system: dopaminergic neurons from the rat embryonic ventral midbrain
Test: Survival of TH+ dopaminergic ventral midbrain neurons
Assay type: cell-based
Conditions: E14 rat, 50 ng/ml, 3 days in culture, FIG. 7F
Description: Embryonic day 14 ventral mesencephalon cultures were prepared by removing the entire mesencephalon into cold Leibovitz's L15+6 mg/ml glucose and dissecting the tissue while keeping it on ice. Following dissection, the tissue was digested in a mixture of dispase (1 mg/ml, Sigma) and collagenase (1 mg/ml, Worthington Biochemical) for 25 min. Tissue was then washed twice with modified N2 media and triturated 35 times. Cell density and viability was assessed using a hemocytometer to count trypan blue excluding cells. Cells were plated at 20,000 cells/well on 8-well chamber slides (coated with 125 ng/ml poly-D-lysine and 25 ng/ml laminin) in serum-free medium consisting of DME/Hams F12 (1:1), 1 mg/ml BSA, 5 μM insulin, 10 nM progesterone, 100 μM putrescine, 30 nM selenium, 10 ng/ml rat transferrin, 100 U/ml penicillin, 100 U/ml streptomycin. Factors were added within 15 min of plating. After 3 days in culture, the cells were fixed, stained for tyrosine hydroxylase, and the number of tyrosine hydroxylase staining (TH+) neurons were counted. The results from two independent experiments are shown in FIG. 7F as the percentage of surviving TH+ neurons over control.

For “artemin: recombinant mature human artemin (FIG. 3A, SEQ ID NO:3) with 8-histidine tag, produced in E. coli; GDNF family neurotrophic factor”, the “survival of TH+ dopaminergic midbrain neurons” value was “supported the survival of dopaminergic midbrain neurons”.
